Test system: adjuvant arthritis
Assay: "In vivo" study: adjuvant arthritis (Mycobacterium tuberculosis) in rats, weight of the right rear paw
Set-up: species or system male Sprague-Dawley rats
Conditions: oral, 0.16 mmol/kg/day, 6 days/week for 3 weeks, versus untreated arthritic control rats
Procedure: "IN VIVO" STUDY: ADJUVANT ARTHRITIS
The injection of rats with mycobacterium causes a polyarthritis and in certain respects resembles human rheumatoid arthritis.
A suspension of Mycobacterium tuberculosis (0.4 mg) in paraffin oil (0.05 ml) is injected intradermally into the tail of male Sprague-Dawley rats having a mean weight of 150 g.
These rats are divided into 2 groups of 14 animals.
The animals of the 1st group are treated 6 days/week for 3 weeks;
either subcutaneously with doses ranging from 0.32 μmol to 32 μmol/kg/day,
or orally with a dose of 0.16 mmol/kg/day. The second group receives placebo and serves as the control group.
After 3 weeks of treatment, half the animals in each group are sacrificed; the other half are kept for 2 weeks without treatment and then sacrificed in turn.
After the animals have been sacrificed, the right rear paw is removed at the tribiotarsal joint and then weighed. The mean and the standard error of the weights are determined for each half-group.
The activity of the product is expresed as the percentage variation in the mean weight of the paws of the treated arthritic rats relative to that of the arthritic paws of the untreated rats (control rats).
For each of the products tested, the therapeutic activity is expressed as the percentage inhibition of the weight of the paw after 3 weeks of treatment. […]

Cc1ccc(SCC(N)(P(=O)(O)O)P(=O)(O)O)cc1 [42 710 A]
% Inhibition of the weight of the paw 2 weeks after the end of the treatment (then 2 weeks without treatment): 7% | % Inhibition of the weight of the paw at the end of the treatment (3 weeks): 19%
